Drawing on patent US5179117A, “Antihypercholesterolemic 2-substituted imidazoles” (Du Pont Merck Pharmaceutical Company, priority 1991, dated 1993), this text covers IC50 for 11 compounds.

SMILES strings stand for the structures. Counter-ions that a name gives are not always drawn.

For the assay, the target named is T1, acyl-CoA: cholesterol acyltransferase (ACAT) (Mus musculus, UniProt Q61263).
T1 construct: endogenous in cells; host or cells: J774.A1 murine macrophage-like cells
T1 sequence (Q61263 1-540): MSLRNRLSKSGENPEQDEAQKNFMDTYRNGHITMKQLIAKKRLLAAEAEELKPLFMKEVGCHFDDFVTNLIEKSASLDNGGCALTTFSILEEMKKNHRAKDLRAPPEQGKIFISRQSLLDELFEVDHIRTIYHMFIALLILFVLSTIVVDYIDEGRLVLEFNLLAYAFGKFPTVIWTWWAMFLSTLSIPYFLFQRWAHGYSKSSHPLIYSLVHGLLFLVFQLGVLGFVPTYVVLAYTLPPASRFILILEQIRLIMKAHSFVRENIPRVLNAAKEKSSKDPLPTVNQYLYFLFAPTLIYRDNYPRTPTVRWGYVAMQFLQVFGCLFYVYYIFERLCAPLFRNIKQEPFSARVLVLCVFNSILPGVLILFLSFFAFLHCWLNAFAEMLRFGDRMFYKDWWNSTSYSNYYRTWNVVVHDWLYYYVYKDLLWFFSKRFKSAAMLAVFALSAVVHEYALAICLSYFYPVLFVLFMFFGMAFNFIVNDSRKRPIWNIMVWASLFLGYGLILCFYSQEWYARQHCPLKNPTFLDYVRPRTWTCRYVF
The assay can be described thus: Assay of the inhibition of cholesterol esterification in mammalian cells (J774.A1 macrophages, 14C-oleic acid incorporation into cholesteryl ester, ac-LDL loaded). The assay is classed as cell-based. The settings on record: murine macrophage-like cell line J774.A1, ac-LDL loaded, 14C-oleic acid pulse; read-out: Cholesterol Esterification IC50 (concentration at which ACAT activity is inhibited by 50%). As for the experimental part:
The esterification of cholesterol was determined in the murine macrophage-like cell line J774.A1. Cells were seeded in 35 mm wells at a density of 300,000 cells per well in 2 mls of Dulbecco's Eagle Medium (DMEM) supplemented with 10% fetal bovine serum (FBS). Cells were incubated at 37° C. in an atmosphere of 5% CO2 and 93% humidity. After 24 hours the media was changed to 0.68 mls 10% FBS-DMEM containing 34 μg of acetylated human low density lipoprotein (ac-LDL) to increase the intracellular concentration of cholesterol and promote esterification. At 41 hours, various inhibitors were added to the cells in DMSO (10 μl/ml maximum). At 43 hours, the cells were pulsed with 0.1 mM ^14 C-oleic acid (10,000 dpm/nmol) complexed with BSA (bovine serum albumin) to follow cholesterol ester formation. The experiment was terminated at 45 hours by washing the monolayers 3 time with 3 ml of Tris-buffered saline at 4° C. The lipids were extracted by incubating the monolayers with 1.5 ml of hexane: isopropanol (3:2, v/v) for 30 min. under gentle agitation. During this period, 10,000 dpm ^3 H-cholesteryl linoleate and 10 μg of cholesteryl oleate were added as an internal standard and carrier respectively. The organic solvent was removed and the cells were washed with an additional 1.0 ml of hexane: isopropanol which was combined with the original extract. The cells were allowed to dry overnight, digested with 1.5 ml of 0.2N sodium hydroxide for 1 hour and an aliquot of the solubilized protein used for protein determination using the Lowry method. The organic extract was taken to dryness, the residue resuspended in 100 μl of chloroform and the lipids separated on silica gel impregnated glass fiber plates using a hexane: diethylether: acetic acid (170:30:1, v/v/v) solvent system. Individual lipids were visualized with iodine and the cholesteryl ester spot cut out and transferred to scintillation vials to determine the amount of radioactivity. The conversion of oleic acid to cholesteryl ester in the control averaged […]/hour/mg protein and was increased upon the addition of ac-LDL to about […]/hour/mg protein. The inhibition of esterification by the compounds is shown in Table 2; the data are expressed as the concentration at which ACAT activity is inhibited by 50% (IC50).
`CCCC[C@H](NC(=O)CCCSc1nc(-c2ccc(OC)cc2)c(-c2ccc(OC)cc2)[nH]1)C(=O)OC` [Example 9, N-[4-[4,5-bis(4-methoxyphenyl)-1H-imidazol-2-ylthio]-1-oxobutyl]-norleucine, methyl ester]: the IC50 worked out at 0.65 µM.

`CCCCCC(=CCCCCSc1nc(-c2ccccc2)c(-c2ccccc2)[nH]1)C(=O)OCC` [Example 10, ethyl, 7-(4,5-diphenyl-1H-imidazol-2-ylthio)-2-pentyl-2-heptenoate]: the IC50 is 4.62 µM.

As for `COC(=O)[C@H](CCCCNC(=O)OCc1ccccc1)NC(=O)CCCSc1nc(-c2ccc(OC)cc2)c(-c2ccc(OC)cc2)[nH]1` [Example 1, N2-[4-[4,5-bis(4-methoxyphenyl)-1H-imidazol-2-ylthio]-1-oxobutyl]-N6-[(phenylmethoxy)carbonyl]-L-lysine, methyl ester], the IC50 amounted to 0.037 µM.

`COC(=O)[C@H](CCCCNC(=O)C12CC3CC(CC(C3)C1)C2)NC(=O)CCCSc1nc(-c2ccc(OC)cc2)c(-c2ccc(OC)cc2)[nH]1` [Example 3, N6-(1-adamantylcarbonyl)-N2-[4-[4,5-bis(4-methoxyphenyl)-1H-imidazol-2-ylthio]-1-oxobutyl]-L-lysine, methyl ester]: the IC50 amounted to 0.386 µM.

For the compound `COC(=O)[C@H](CCCCN)NC(=O)CCCSc1nc(-c2ccc(OC)cc2)c(-c2ccc(OC)cc2)[nH]1` [Example 2, N2-[4-[4,5-bis(4-methoxyphenyl)-1H-imidazol-2-ylthio]-1-oxobutyl]-L-lysine, methyl ester hydrobromide], the IC50 was found to be 100 µM.

For the compound `COC(=O)[C@H](CCCCNC(=O)OCc1ccccc1)NC(=O)CCCSc1nc(-c2ccc(N(C)C)cc2)c(-c2ccc(N(C)C)cc2)[nH]1` [Example 8, N2-[4-[4,5-bis[4-(dimethylamino)phenyl] -1H-imidazol-2-ylthio]-1-oxobutyl]-N6-[(phenylmethoxy)carbonyl]-L-lysine, methylester], the IC50 was found to be 0.0049 µM.

Take `COC(=O)[C@H](CCCCNC(C)=O)NC(=O)CCCSc1nc(-c2ccc(OC)cc2)c(-c2ccc(OC)cc2)[nH]1` [Example 6, N6-acetyl-N2-[4-[4,5-bis(4-methoxyphenyl)-1H-imidazol-2-ylthio]-1-oxobutyl]-L-lysine, methyl ester]: the IC50 amounted to 10.3 µM.

Consider `COc1ccc(-c2nc(SCCCC(=O)N[C@@H](CCCCNC(=O)OCc3ccccc3)C(=O)NC(C)C)[nH]c2-c2ccc(OC)cc2)cc1` [Example 7, phenylmethyl, (S)-[5-[[4-[4,5-bis(4-methoxyphenyl)-1H-imidazol-2-ylthio]-1-oxobutyl]amino]-6-[(1-methylethyl)amino]-6-oxohexyl]carbamate], for which the IC50 stood at 1.1 µM.

With `CCCCCC(=CCCCCSc1nc(-c2ccccc2)c(-c2ccccc2)[nH]1)C(=O)O` [Example 11, 7-(4,5-diphenyl-1H-imidazol-2-ylthio)-2-pentyl-2-heptenoic acid], the IC50 came to 13.4 µM.

Regarding `COC(=O)[C@H](CCCCNC(C)=O)NC(=O)CCCSc1nc(-c2ccc(OC)cc2)c(-c2ccc(OC)cc2)n1C(C)=O` [Example 5, N6-acetyl-N2-[4-[1-acetyl-4,5-bis(4-methoxyphenyl)-1H-imidazol-2-ylthio]-1-oxobutyl]-L-lysine, methyl ester], the IC50 worked out at 7.15 µM.

In the case of `COC(=O)[C@H](CCCCNC(=O)NCc1ccccc1)NC(=O)CCCSc1nc(-c2ccc(OC)cc2)c(-c2ccc(OC)cc2)[nH]1` [Example 4, N2-[4-[4,5-bis(4-methoxyphenyl)-1H-imidazol-2-ylthio]-1-oxobutyl]-N6-[(phenylmethyl)-aminocarbonyl]-L-lysine, methyl ester], the IC50 worked out at 0.601 µM.
